Experimental data reported in article PMC8911579, “(−)-Naringenin 4′,7-dimethyl Ether Isolated from Nardostachys jatamansi Relieves Pain through Inhibition of Multiple Channels” (Molecules, 2022).

Key:
[1] = test system: pain; design: method as in PMID 30193010; conditions: in vivo; cited from earlier work
[2] = test system: pro-inflammatory factors; design: method as in PMID 30193010; conditions: compared to other naringenin derivatives; cited from earlier work
[3] = test system: opioid receptors; design: method as in PMID 25686780; conditions: radioligand binding; cited from earlier work
[4] = test system: endocannabinoid receptors; design: method as in PMID 25686780; conditions: radioligand binding; cited from earlier work
[5] = molecular target: T1, TRPA1 channels (Homo sapiens, UniProt O75762); test: whole-cell patch-clamp, TRPA1 stably expressed in HEK293 cells; format: cell-based
T1 construct: expressed in transfected cells

[6] = test system: Nav channels and Kv channels in cortical neurons; design: method as in PMID 34747100; conditions: cited from earlier work
[7] = test system: sleep; design: method as in PMID 34747100; conditions: extracted from peanut stem and leaf; cited from earlier work

T1 sequence (O75762 whole entry): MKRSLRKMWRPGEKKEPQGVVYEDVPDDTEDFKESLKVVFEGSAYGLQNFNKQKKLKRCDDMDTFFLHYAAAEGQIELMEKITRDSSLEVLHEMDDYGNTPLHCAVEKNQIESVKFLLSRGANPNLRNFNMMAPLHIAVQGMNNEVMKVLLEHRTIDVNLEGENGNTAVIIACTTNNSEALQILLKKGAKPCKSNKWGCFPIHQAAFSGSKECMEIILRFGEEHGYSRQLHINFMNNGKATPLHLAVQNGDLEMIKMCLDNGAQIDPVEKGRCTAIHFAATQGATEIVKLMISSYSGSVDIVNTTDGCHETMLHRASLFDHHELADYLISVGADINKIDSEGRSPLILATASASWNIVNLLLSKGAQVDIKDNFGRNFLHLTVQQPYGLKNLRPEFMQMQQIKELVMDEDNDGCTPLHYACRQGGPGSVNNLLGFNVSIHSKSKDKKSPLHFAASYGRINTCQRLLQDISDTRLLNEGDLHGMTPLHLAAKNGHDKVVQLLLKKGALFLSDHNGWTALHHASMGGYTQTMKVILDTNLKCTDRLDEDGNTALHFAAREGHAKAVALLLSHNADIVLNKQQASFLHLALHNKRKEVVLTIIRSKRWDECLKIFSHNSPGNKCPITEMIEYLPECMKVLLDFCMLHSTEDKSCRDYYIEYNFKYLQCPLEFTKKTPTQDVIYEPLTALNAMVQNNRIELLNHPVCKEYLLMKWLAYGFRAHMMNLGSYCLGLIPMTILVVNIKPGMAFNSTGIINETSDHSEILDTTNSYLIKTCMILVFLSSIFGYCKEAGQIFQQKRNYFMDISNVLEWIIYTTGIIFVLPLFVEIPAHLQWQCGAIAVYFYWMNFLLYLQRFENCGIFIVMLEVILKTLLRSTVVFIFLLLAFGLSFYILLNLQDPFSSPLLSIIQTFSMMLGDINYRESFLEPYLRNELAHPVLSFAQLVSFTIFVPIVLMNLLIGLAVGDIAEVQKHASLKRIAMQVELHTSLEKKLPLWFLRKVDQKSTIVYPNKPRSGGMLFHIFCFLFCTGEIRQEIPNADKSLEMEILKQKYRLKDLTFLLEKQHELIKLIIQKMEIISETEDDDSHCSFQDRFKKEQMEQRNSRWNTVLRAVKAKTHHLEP

For COc1ccc([C@@H]2CC(=O)c3c(O)cc(OC)cc3O2)cc1 [(+)-NRG-DM, (+)-naringenin 4′,7-dimethyl ether], the analgesic activity [1] is listed as “showed analgesic activity”, the “production and release of pro-inflammatory factors” value [2] is listed as “did not influence the production and release of pro-inflammatory factors” and the affinity [3] is listed as “does not show affinity”. For the same molecule, the affinity [4] was “does not show affinity”.

In the case of C=CCN=C=S [AITC, allyl isothiocyanate], the “effect on TRPA1 currents” value ([5]; 10 µM, TRPA1 channel activator) was “induced”.

With CC(C)c1ccc(NC(=O)Cn2cnc3c2c(=O)n(C)c(=O)n3C)cc1 [HC030031] the “effect on TRPA1 currents” value ([5]; 30 µM, TRPA1 channel inhibitor) was “inhibited”.

For COc1ccc([C@@H]2CC(=O)c3c(O)cc(OC)cc3O2)cc1 [NRG-DM], the “inhibitory activity on Nav channels versus Kv channels” value [6] is given as “more potent than that on Kv channels” and the sleep [7] is given as “promoted sleep”.
